Experiment [1] has as its system NFATc1 in normal keratinocytes (NKs). The experiment can be described thus: NFATc1 expression and nuclear localization (qRT-PCR, western blot) in thapsigargin-treated normal keratinocytes. Type of experiment: cell-based, human. The settings on record: 1 μM TG. The protocol: (§1) FIG. 4: TG-treated NK display the same features as DK. NKs were pretreated (TG) or not (−) with 1 μM of TG for 24 hours. a-b. […] Reversion by CsA treatment. c-d. TG-treated NK display premature differentiation markers up-regulation. SPRR2, LCE3B-E and loricrin expression is induced after 24 h (TG24) and 48 h (TG48) of TG-treatment in NK. *P<0.05. Results are from NKs from two donors (a) and one donor (b-d) and are representative of two independent experiments from two NKs.
To test whether loss of SERCA2 function is sufficient to induce NFATc1 overexpression and activation associated with premature expression of EDC genes, NKs were treated with 1 μM of thapsigargin (TG), a SERCA pumps inhibitor, for 24 and/or 48 hours to mimick SERCA2 dysfunction in DK.
A general note: Quantitative PCR measures a nucleic acid by following its amplification.

The subject of experiment [2] is LCE3D, LCE3E, SPRR2B, SPRR2D and loricrin in normal keratinocytes (NKs). The experiment can be described thus: Expression of EDC differentiation genes (qRT-PCR, western blot) in thapsigargin-treated normal keratinocytes. Type of experiment: cell-based, human. The settings on record: 1 μM TG, 24 and/or 48 hours. The protocol: as §1
In order to confirm that upregulation of differentiation genes is due to SERCA2 defect, qRT-PCR and western blot analysis were performed on TG-treated NKs.

In experiment [3] the test system is NFATc1 nuclear localization in Darier keratinocytes (DKs). The experiment in a line: NFATc1 nuclear/cytoplasmic localization by western blot in Darier keratinocytes. The settings on record: 100 ng/ml Tacrolimus, 24 hours. Type of experiment: cell-based, human. On the technique in general: A western blot detects proteins with antibodies after separation by electrophoresis.
Experimental: Nuclear (N) and cytoplasmic (C) cell extracts were immunoblotted for NFATc1 and actin for normalization.
Therefore, we treated healthy keratinocytes and DKs with 10 μM of CsA or 100 ng/ml of Tacrolimus for 24 hours. Western blot experiments using a specific antibody directed against NFATc1 were performed on nuclear and cytosolic extracts.

Experiment [4] has as its system LCE3D, LCE3E, SPRR2B, SPRR2D and loricrin in Darier keratinocytes (DKs). The experiment can be described thus: Expression of EDC differentiation genes (qRT-PCR, western blot) in Darier keratinocytes after NFATc1 inhibition. Type of experiment: cell-based, human. The protocol:
FIG. 5: Calcineurin inhibitors and NFATc1 inhibition decreased premature differentiation in DK. Quantitative RT-PCR and western blot were performed on mRNA and protein extracts from five DKs after 48 h Tacrolimus (a-b) or 24 h and 48 h CsA treatment (b). For (a), results are expressed as fold repression compared to non-treated DK and are the mean+/−SEM of five DK. Results are representative of two independent experiments. Asterisks represent statistical significance versus the appropriate control in each case. *P<0.05 and***P<0.001 c. Relative efficiency of small interfering RNA (siRNA)-mediated NFATc1 silencing compared to scrambled control by quantitative PCR and western blotting. Decreased expression of differentiation genes after NFATc1 specific inhibition at mRNA (d). For (d), results are expressed as fold repression compared to DKs transfected with scrambled si-RNA and are the mean+/−SEM of four DK from one experiment.
To substantiate the role of NFATc1 as an enhancer of EDC genes expression in DKs and TG-treated NKs grown in basal condition, we inhibited NFATc1 activation indirectly (using calcineurin inhibitors) and directly (using small interfering RNA-mediated NFATc1 silencing), in Darier keratinocytes.
DKs maintained in proliferating conditions were treated with 100 ng ml^−1 of Tacrolimus for 24 hours.

In a further experiment the test system is Darier disease. The settings on record: few isolated cases, when retinoids were not recommended; systemic Cyclosporin, topical Tacrolimus; cited from earlier work.

The structures appear in SMILES notation.

Take `C/C=C(/C)C(=O)O[C@H]1C(C)=C2[C@H]([C@@H]1OC(=O)CCCCCCC)[C@@](C)(OC(C)=O)C[C@H](OC(=O)CCC)[C@@]1(O)[C@H]2OC(=O)[C@@]1(C)O` [TG, thapsigargin]: the “NFATc1 expression (quantitative RT-PCR)” value in experiment [1] (24 hours) is reported as “increased NFATc1 expression”. Moreover, the “NFATc1 protein in nuclear extracts (western blot)” value in experiment [1] (vs non-treated NKs) was “a higher amount of NFATc1 protein was located in the nucleus”. Moreover, the “Expression of LCE3D, LCE3E, SPRR2B, SPRR2D and loricrin transcripts and proteins (qRT-PCR, western blot)” value in experiment [2] is listed as “increased expression”.

Regarding `C=CC[C@@H]1/C=C(\C)C[C@H](C)C[C@H](OC)[C@H]2O[C@@](O)(C(=O)C(=O)N3CCCC[C@H]3C(=O)O[C@H](/C(C)=C/[C@@H]3CC[C@@H](O)[C@H](OC)C3)[C@H](C)[C@@H](O)CC1=O)[C@H](C)C[C@@H]2OC` [Tacrolimus], the “NFATc1 localization in nuclear and cytosolic extracts (western blot)” value in experiment [3] was “induced NFATc1 translocation from the nucleus to the cytoplasm”. Besides, the “Expression of LCE3D, LCE3E, SPRR2B, SPRR2D and loricrin (quantitative RT-PCR)” value in experiment [4] (DKs in proliferating conditions, 100 ng ml^−1 Tacrolimus, 24 hours) is recorded as “significantly decreased”. For the same molecule, the “LCE3B-E, SPRR2 and loricrin protein expression (western blot)” value in experiment [4] (DKs, Tacrolimus treatment) was “reduced LCE3B-E, SPRR2 and loricrin expression”. Also, in the experiment with Darier disease, the “Treatment of Darier disease in patients” value is “successfully used”.

The values above are taken from patent publication US20180353486A1, “METHODS AND PHARMACEUTICAL COMPOSITIONS FOR THE TREATMENT OF DARIER DISEASE” (INSERM (Institut National de la Sante et de la Recherche …, priority 2015, published 2018).
